Assay results from patent publication US6525001B1, “Substituted pyrimidine and pyridine herbicides” (Mid-American Commercialization Corporation, priority 1997, dated 2003).

Key:
Assay in all cases: Test D
Format in all cases: in vivo
[1] = tested on: galium 2 (Galium aparine); conditions: POSTEMERGENCE
Procedure: (§1) Compounds evaluated in this test were formulated in a non-phytotoxic solvent mixture which included a surfactant and applied to plants that were in the 1- to 4-leaf stage (postemergence application). A mixture of sandy loam soil and greenhouse potting mix in a 60:40 ratio was used for the postemergence test.
(§2) Plantings of these crops and weed species were adjusted to produce plants of appropriate size for the postemergence test. All plant species were grown using normal greenhouse practices. Crop and weed species include alfalfa (Medicago sativa), annual bluegrass (Poa annua), blackgrass (Alopecurus myosuroides), black nightshade (Solanum nigra), chickweed (Stellaria media), common poppy (Papaver rhoeas), deadnettle (Lamium amplexicaule), downy brome (Bromus tectorum), field violet (Viola arvensis), galium 2 (Galium aparine), green foxtail (Setaria viridis), Italian ryegrass (Lolium multiflorum), jointed goatgrass (Aegilops cylindrica), kochia (Kochia scoparia), lambsquarters (Chenopodium album), lentil (Lens culinaris), littleseed canarygrass (Phalaris minor), pea (Pisum sativum), potato (Solanum tuberosum), rape (Brassica napus), redroot pigweed (Amaranthus retroflexus), Russian thistle (Salsola kali), scentless chamomile (Matricaria inodora), sorghum (Sorghum vulgare), spring barley (Hordeum vulgare), sugar beet (Beta vulgaris), sunflower (Helianthus annuus), ivyleaf speedwell (Veronica hederaefolia), spring wheat (Triticum aestivum), winter wheat (Triticum aestivum), wild buckwheat (Polygonum convolvulus), wild mustard (Sinapis arvensis), wild oat (Avena fatua), windgrass (Apera spica-venti) and winter barley (Hordeum vulgare).
(§3) Treated plants and untreated controls were maintained in a greenhouse for approximately 21 to 28 days, after which all treated plants were compared to untreated controls and visually evaluated. Plant response ratings, summarized in Table D, are based upon a 0 to 100 scale where 0 is no effect and 100 is complete control. A dash response (−) means no test result.

[2] = tested on: wild buckwheat (Polygonum convolvulus); conditions: POSTEMERGENCE
Procedure: as §1, §2, §3

[3] = tested on: kochia (Kochia scoparia); conditions: POSTEMERGENCE
Procedure: as §1, §2, §3

[4] = tested on: redroot pigweed (Amaranthus retroflexus); conditions: POSTEMERGENCE
Procedure: as §1, §2, §3

[5] = tested on: blackgrass (Alopecurus myosuroides); conditions: PREEMERGENCE
[6] = tested on: galium 2 (Galium aparine); design: key: 0 is no effect; 100 is complete control; conditions: PREEMERGENCE
[7] = tested on: Italian ryegrass (Lolium multiflorum); conditions: PREEMERGENCE
[8] = tested on: littleseed canarygrass (Phalaris minor); conditions: PREEMERGENCE
[9] = tested on: deadnettle (Lamium amplexicaule); design: key: 0 is no effect; conditions: PREEMERGENCE
[10] = tested on: wild mustard (Sinapis arvensis); design: key: 0 is no effect; 100 is complete control; conditions: PREEMERGENCE
[11] = tested on: wild buckwheat (Polygonum convolvulus); conditions: PREEMERGENCE
[12] = tested on: rape (Brassica napus); design: key: 0 is no effect; 100 is complete control; conditions: PREEMERGENCE
[13] = tested on: windgrass (Apera spica-venti); conditions: POSTEMERGENCE, Rate 62 g/ha
Procedure: as §1, §2, §3

[14] = tested on: common poppy (Papaver rhoeas); design: key: 0 is no effect; 100 is complete control; conditions: POSTEMERGENCE
Procedure: as §1, §2, §3

[15] = tested on: sugar beet (Beta vulgaris); design: key: 0 is no effect; 100 is complete control; conditions: POSTEMERGENCE
Procedure: as §1, §2, §3

[16] = tested on: wild mustard (Sinapis arvensis); design: key: 0 is no effect; 100 is complete control; conditions: POSTEMERGENCE
Procedure: as §1, §2, §3

[17] = tested on: chickweed (Stellaria media); design: key: 0 is no effect; 100 is complete control; conditions: POSTEMERGENCE
Procedure: as §1, §2, §3

[18] = tested on: deadnettle (Lamium amplexicaule); design: key: 0 is no effect; 100 is complete control; conditions: POSTEMERGENCE
Procedure: as §1, §2, §3

[19] = tested on: black nightshade (Solanum nigra); design: key: 0 is no effect; 100 is complete control; conditions: POSTEMERGENCE
Procedure: as §1, §2, §3

[20] = tested on: rape (Brassica napus); design: key: 0 is no effect; 100 is complete control; conditions: POSTEMERGENCE
Procedure: as §1, §2, §3

[21] = tested on: sugar beet (Beta vulgaris); design: key: 0 is no effect; 100 is complete control; conditions: PREEMERGENCE
[22] = tested on: common poppy (Papaver rhoeas); design: key: 0 is no effect; 100 is complete control; conditions: PREEMERGENCE

CCc1cnc(-c2ccc(C(F)(F)F)cc2)nc1Cc1cccc(C(F)(F)F)c1 [Compound 22]
Plant response rating, Galium ([1]; Rate 62 g/ha): 70 | Plant response rating, Galium ([1]; Rate 125 g/ha): 90 | Plant response rating, Wild buckwheat ([2]; Rate 62 g/ha): 20 | Plant response rating, Wild buckwheat ([2]; Rate 125 g/ha): 20 | Plant response rating, Kochia ([3]; Rate 62 g/ha): 50 | Plant response rating, Kochia ([3]; Rate 125 g/ha): 70 | Plant response rating, Redroot pigweed ([4]; Rate 62 g/ha): 50 | Plant response rating, Redroot pigweed ([4]; Rate 125 g/ha): 70 | Plant response rating, Blackgrass ([5]; Rate 62 g/ha): 30 | Plant response rating, Blackgrass ([5]; Rate 125 g/ha): 60 | Plant response rating, Blackgrass ([5]; Rate 250 g/ha): 40 | Plant response rating, Galium ([6]; Rate 62 g/ha): 20 | Plant response rating, Galium ([6]; Rate 125 g/ha): 100 | Plant response rating, Galium ([6]; Rate 250 g/ha): 30 | Plant response rating, I. Ryegrass ([7]; Rate 125 g/ha): 65 | Plant response rating, I. Ryegrass ([7]; Rate 250 g/ha): 75 | Plant response rating, LS canarygrass ([8]; Rate 62 g/ha): 20 | Plant response rating, LS canarygrass ([8]; Rate 125 g/ha): 60 | Plant response rating, LS canarygrass ([8]; Rate 250 g/ha): 50 | Plant response rating, Deadnettle ([9]; Rate 62 g/ha): 0 | Plant response rating, Deadnettle ([9]; Rate 125 g/ha): 70 | Plant response rating, Deadnettle ([9]; Rate 250 g/ha): 10 | Plant response rating, Wild mustard ([10]; Rate 62 g/ha): 30 | Plant response rating, Wild mustard ([10]; Rate 125 g/ha): 60 | Plant response rating, Wild mustard ([10]; Rate 250 g/ha): 30 | Plant response rating, Wild buckwheat ([11]; Rate 125 g/ha): 55 | Plant response rating, Wild buckwheat ([11]; Rate 250 g/ha): 30 | Plant response rating, Rape ([12]; Rate 62 g/ha): 20 | Plant response rating, Rape ([12]; Rate 125 g/ha): 100 | Plant response rating, Rape ([12]; Rate 250 g/ha): 50 | Plant response rating, Windgrass [13]: 30 | Plant response rating, Common poppy ([14]; Rate 62 g/ha): 100 | Plant response rating, Common poppy ([14]; Rate 125 g/ha): 100 | Plant response rating, Sugar beet ([15]; Rate 62 g/ha): 100 | Plant response rating, Sugar beet ([15]; Rate 125 g/ha): 100 | Plant response rating, Wild mustard ([16]; Rate 62 g/ha): 100 | Plant response rating, Wild mustard ([16]; Rate 125 g/ha): 100 | Plant response rating, Chickweed ([17]; Rate 62 g/ha): 60 | Plant response rating, Chickweed ([17]; Rate 125 g/ha): 100 | Plant response rating, Deadnettle ([18]; Rate 62 g/ha): 50 | Plant response rating, Deadnettle ([18]; Rate 125 g/ha): 90 | Plant response rating, Blk nightshade ([19]; Rate 62 g/ha): 90 | Plant response rating, Blk nightshade ([19]; Rate 125 g/ha): 100 | Plant response rating, Rape ([20]; Rate 62 g/ha): 90 | Plant response rating, Rape ([20]; Rate 125 g/ha): 90 | Plant response rating, Sugar beet ([21]; Rate 62 g/ha): 30 | Plant response rating, Sugar beet ([21]; Rate 125 g/ha): 100 | Plant response rating, Sugar beet ([21]; Rate 250 g/ha): 80 | Plant response rating, Common poppy ([22]; Rate 62 g/ha): 60 | Plant response rating, Common poppy ([22]; Rate 125 g/ha): 70 | Plant response rating, Common poppy ([22]; Rate 250 g/ha): 70

CCc1cnc(-n2ccc(C(F)(F)F)n2)nc1Cc1cccc(C(F)(F)F)c1 [Compound 46]
Plant response rating, Blackgrass ([5]; Rate 31 g/ha): 10 | Plant response rating, Blackgrass ([5]; Rate 62 g/ha): 60 | Plant response rating, Galium ([6]; Rate 31 g/ha): 60 | Plant response rating, Galium ([6]; Rate 62 g/ha): 60 | Plant response rating, I. Ryegrass ([7]; Rate 31 g/ha): 60 | Plant response rating, I. Ryegrass ([7]; Rate 62 g/ha): 60 | Plant response rating, LS canarygrass ([8]; Rate 31 g/ha): 70 | Plant response rating, LS canarygrass ([8]; Rate 62 g/ha): 90 | Plant response rating, Deadnettle ([9]; Rate 31 g/ha): 90 | Plant response rating, Deadnettle ([9]; Rate 62 g/ha): 90 | Plant response rating, Wild mustard ([10]; Rate 31 g/ha): 90 | Plant response rating, Wild mustard ([10]; Rate 62 g/ha): 100 | Plant response rating, Wild buckwheat ([11]; Rate 31 g/ha): 40 | Plant response rating, Wild buckwheat ([11]; Rate 62 g/ha): 40 | Plant response rating, Rape ([12]; Rate 31 g/ha): 50 | Plant response rating, Rape ([12]; Rate 62 g/ha): 100 | Plant response rating, Sugar beet ([21]; Rate 31 g/ha): 70 | Plant response rating, Sugar beet ([21]; Rate 62 g/ha): 100 | Plant response rating, Common poppy ([22]; Rate 31 g/ha): 100 | Plant response rating, Common poppy ([22]; Rate 62 g/ha): 100
